Data reported in PubChem BioAssay (NCI).
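96-well plates; 48 h exposure; 5 concentrations. Endpoints by linear interpolation between flanking doses. Not reached: highest tested concentration assigned. TGI: concentration producing complete growth inhibition.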

Legend:
Assay in all cases: NCI tumour cell line growth inhibition, 48 h
786-0 renal = test system: 786-0 renal
A498 renal = test system: A498 renal
A549 NSCLC = test system: A549 NSCLC
ACHN renal = test system: ACHN renal
BT-549 breast = test system: BT-549 breast
CAKI-1 renal = test system: CAKI-1 renal
CCRF-CEM leukemia = test system: CCRF-CEM leukemia
COLO 205 colon = test system: COLO 205 colon
DU-145 prostate = test system: DU-145 prostate
EKVX NSCLC = test system: EKVX NSCLC
HCC-2998 colon = test system: HCC-2998 colon
HCT-116 colon = test system: HCT-116 colon
HCT-15 colon = test system: HCT-15 colon
HL-60(TB) leukemia = test system: HL-60(TB) leukemia
HOP-62 NSCLC = test system: HOP-62 NSCLC
HOP-92 NSCLC = test system: HOP-92 NSCLC
HS 578T breast = test system: HS 578T breast
HT29 colon = test system: HT29 colon
IGROV1 ovarian = test system: IGROV1 ovarian
K-562 leukemia = test system: K-562 leukemia
KM12 colon = test system: KM12 colon
LOX IMVI melanoma = test system: LOX IMVI melanoma
MALME-3M melanoma = test system: MALME-3M melanoma
MCF7 breast = test system: MCF7 breast
MDA-MB-231 breast = test system: MDA-MB-231 breast
MDA-MB-435 = test system: MDA-MB-435
MDA-N = test system: MDA-N
NCI-H226 lung = test system: NCI-H226 lung
NCI-H460 lung = test system: NCI-H460 lung
NCI-H522 lung = test system: NCI-H522 lung
NCI/ADR-RES ovarian = test system: NCI/ADR-RES ovarian
OVCAR-3 ovarian = test system: OVCAR-3 ovarian
OVCAR-4 ovarian = test system: OVCAR-4 ovarian
OVCAR-5 ovarian = test system: OVCAR-5 ovarian
OVCAR-8 ovarian = test system: OVCAR-8 ovarian
PC-3 prostate = test system: PC-3 prostate
RPMI-8226 leukemia = test system: RPMI-8226 leukemia
RXF 393 renal = test system: RXF 393 renal
SF-268 CNS = test system: SF-268 CNS
SF-295 CNS = test system: SF-295 CNS
SF-539 CNS = test system: SF-539 CNS
SK-MEL-2 melanoma = test system: SK-MEL-2 melanoma
SK-MEL-28 melanoma = test system: SK-MEL-28 melanoma
SK-MEL-5 melanoma = test system: SK-MEL-5 melanoma
SK-OV-3 ovarian = test system: SK-OV-3 ovarian
SN12C renal = test system: SN12C renal
SNB-19 CNS = test system: SNB-19 CNS
SR leukemia = test system: SR leukemia
SW-620 colon = test system: SW-620 colon
T-47D breast = test system: T-47D breast
TK-10 renal = test system: TK-10 renal
U251 CNS = test system: U251 CNS
UACC-257 melanoma = test system: UACC-257 melanoma
UACC-62 melanoma = test system: UACC-62 melanoma
UO-31 renal = test system: UO-31 renal
M14 melanoma = test system: M14 melanoma
MOLT-4 leukemia = test system: MOLT-4 leukemia
SNB-75 CNS = test system: SNB-75 CNS

CC(C)C1CC(CO)(CNc2cc(Cl)nc(N)n2)C1 (stereo not given)
TGI (786-0 renal): > 100 µM | TGI (A498 renal): 65.9 µM | TGI (A549 NSCLC): > 100 µM | TGI (ACHN renal): > 100 µM | TGI (BT-549 breast): > 100 µM | TGI (CAKI-1 renal): > 100 µM | TGI (CCRF-CEM leukemia): > 100 µM | TGI (COLO 205 colon): > 100 µM | TGI (DU-145 prostate): > 100 µM | TGI (EKVX NSCLC): > 100 µM | TGI (HCC-2998 colon): > 100 µM | TGI (HCT-116 colon): > 100 µM | TGI (HCT-15 colon): > 100 µM | TGI (HL-60(TB) leukemia): > 100 µM | TGI (HOP-62 NSCLC): > 100 µM | TGI (HOP-92 NSCLC): > 100 µM | TGI (HS 578T breast): > 100 µM | TGI (HT29 colon): > 100 µM | TGI (IGROV1 ovarian): > 100 µM | TGI (K-562 leukemia): > 100 µM | TGI (KM12 colon): > 100 µM | TGI (LOX IMVI melanoma): > 100 µM | TGI (MALME-3M melanoma): > 100 µM | TGI (MCF7 breast): > 100 µM | TGI (MDA-MB-231 breast): > 100 µM | TGI (MDA-MB-435): > 100 µM | TGI (MDA-N): > 100 µM | TGI (NCI-H226 lung): > 100 µM | TGI (NCI-H460 lung): > 100 µM | TGI (NCI-H522 lung): > 100 µM | TGI (NCI/ADR-RES ovarian): > 100 µM | TGI (OVCAR-3 ovarian): > 100 µM | TGI (OVCAR-4 ovarian): > 100 µM | TGI (OVCAR-5 ovarian): > 100 µM | TGI (OVCAR-8 ovarian): > 100 µM | TGI (PC-3 prostate): > 100 µM | TGI (RPMI-8226 leukemia): > 100 µM | TGI (RXF 393 renal): > 100 µM | TGI (SF-268 CNS): > 100 µM | TGI (SF-295 CNS): > 100 µM | TGI (SF-539 CNS): > 100 µM | TGI (SK-MEL-2 melanoma): > 100 µM | TGI (SK-MEL-28 melanoma): > 100 µM | TGI (SK-MEL-5 melanoma): 40.8 µM | TGI (SK-OV-3 ovarian): > 100 µM | TGI (SN12C renal): > 100 µM | TGI (SNB-19 CNS): > 100 µM | TGI (SR leukemia): > 100 µM | TGI (SW-620 colon): > 100 µM | TGI (T-47D breast): 87.9 µM | TGI (TK-10 renal): > 100 µM | TGI (U251 CNS): > 100 µM | TGI (UACC-257 melanoma): > 100 µM | TGI (UACC-62 melanoma): > 100 µM | TGI (UO-31 renal): > 100 µM

OC(c1cc(-c2ccccc2)nc2c1ccc1ccccc12)C1CCCCN1 (stereo not given)
TGI (786-0 renal): 3.04 µM | TGI (A498 renal): 3.76 µM | TGI (ACHN renal): 3.26 µM | TGI (BT-549 breast): 25 µM | TGI (CAKI-1 renal): 4.04 µM | TGI (DU-145 prostate): 3.45 µM | TGI (EKVX NSCLC): 5.4 µM | TGI (HCC-2998 colon): 0.586 µM | TGI (HCT-116 colon): 2.92 µM | TGI (HL-60(TB) leukemia): 1.13 µM | TGI (HOP-62 NSCLC): 3.24 µM | TGI (HOP-92 NSCLC): 3.56 µM | TGI (HS 578T breast): 3.53 µM | TGI (IGROV1 ovarian): 2.98 µM | TGI (K-562 leukemia): > 100 µM | TGI (KM12 colon): 3.35 µM | TGI (M14 melanoma): 3.22 µM | TGI (MALME-3M melanoma): 3.19 µM | TGI (MDA-MB-231 breast): 3.36 µM | TGI (MDA-MB-435): 3.33 µM | TGI (MDA-N): 2.97 µM | TGI (MOLT-4 leukemia): > 100 µM | TGI (NCI-H226 lung): > 100 µM | TGI (NCI-H460 lung): 3.62 µM | TGI (OVCAR-3 ovarian): 3.29 µM | TGI (PC-3 prostate): 3.07 µM | TGI (RXF 393 renal): 3.03 µM | TGI (SF-268 CNS): 2.88 µM | TGI (SF-295 CNS): 3.44 µM | TGI (SK-MEL-2 melanoma): 3.17 µM | TGI (SK-MEL-28 melanoma): 3.18 µM | TGI (SK-MEL-5 melanoma): 8.55 µM | TGI (SK-OV-3 ovarian): 3.32 µM | TGI (SN12C renal): 3.1 µM | TGI (SNB-75 CNS): 3.43 µM | TGI (TK-10 renal): 3.5 µM | TGI (U251 CNS): 3.15 µM | TGI (UACC-257 melanoma): 3.41 µM | TGI (UACC-62 melanoma): 3.46 µM | TGI (UO-31 renal): 2.45 µM
